Reference: ChEMBL document CHEMBL3286303, “Synthesis and in vitro antiproliferative evaluation of novel N-alkylated 6-isobutyl- and propyl pyrimidine derivatives” (Bioorg Med Chem Lett, 2014)
Active and inactive are the calls of the source. The calls are words filed in the database; no cut-off is given here.

Assays:
K562 [1] = test: Cell cycle arrest in human K562 cells as assessed as accumulation at S phase at 0.5 uM after 48 hrs by propidium iodide staining-based flow cytometric analysis relative to control; assay type: functional
WI-38 [2] = test: Cell cycle arrest in human WI38 cells as assessed as accumulation at G2/M phase at 0.1 uM after 48 hrs by propidium iodide staining-based flow cytometric analysis relative to control; conditions: wi-38, 48 h
K562 [3] = test: Cell cycle arrest in human K562 cells as assessed as accumulation at G1 phase at 0.1 uM after 24 hrs by propidium iodide staining-based flow cytometric analysis relative to control; assay type: functional
WI-38 [4] = test: Cell cycle arrest in human WI38 cells as assessed as accumulation at sub-G1 phase at 1 uM after 48 hrs by propidium iodide staining-based flow cytometric analysis relative to control; conditions: wi-38, 48 h
WI-38 [5] = test: Cell cycle arrest in human WI38 cells as assessed as accumulation at G2/M phase at 1 uM after 24 hrs by propidium iodide staining-based flow cytometric analysis relative to control; conditions: wi-38, 24 h
SW-620 [6] = test: Cell cycle arrest in human SW620 cells as assessed as accumulation at G2/M phase at 1 uM after 24 hrs by propidium iodide staining-based flow cytometric analysis relative to control; assay type: functional
WI-38 [7] = test: Cell cycle arrest in human WI38 cells as assessed as accumulation at S phase at 0.1 uM after 48 hrs by propidium iodide staining-based flow cytometric analysis relative to control; conditions: wi-38, 48 h
K562 [8] = test: Cell cycle arrest in human K562 cells as assessed as accumulation at sub-G1 phase at 1 uM after 48 hrs by propidium iodide staining-based flow cytometric analysis relative to control; assay type: functional
K562 [9] = test: Cell cycle arrest in human K562 cells as assessed as accumulation at S phase at 1 uM after 24 hrs by propidium iodide staining-based flow cytometric analysis relative to control; assay type: functional
K562 [10] = test: Cell cycle arrest in human K562 cells as assessed as accumulation at G1 phase at 0.5 uM after 24 hrs by propidium iodide staining-based flow cytometric analysis relative to control; assay type: functional
MCF7 [11] = test: Cell cycle arrest in human MCF7 cells as assessed as accumulation at G1 phase at 1 uM after 24 hrs by propidium iodide staining-based flow cytometric analysis relative to control; assay type: functional
SW-620 [12] = test: Cell cycle arrest in human SW620 cells as assessed as accumulation at sub-G1 phase at 1 uM after 48 hrs by propidium iodide staining-based flow cytometric analysis relative to control; assay type: functional
MCF7 [13] = test: Antiadhesive activity against human MCF7 cells at 5 uM after 2 to 24 hrs by crystal-violet staining-based microscopic analysis; assay type: functional, cell-based
WI-38 [14] = test: Cell cycle arrest in human WI38 cells as assessed as accumulation at S phase at 1 uM after 48 hrs by propidium iodide staining-based flow cytometric analysis relative to control; conditions: wi-38, 48 h
MCR = test: Antiproliferative activity against human MCR cells after 72 hrs by MTT assay; assay type: cell-based; conditions: human, mcr
SW-620 [15] = test: Cell cycle arrest in human SW620 cells as assessed as accumulation at G2/M phase at 0.1 uM after 48 hrs by propidium iodide staining-based flow cytometric analysis relative to control; assay type: functional
K562 [16] = test: Cell cycle arrest in human K562 cells as assessed as accumulation at G2/M phase at 1 uM after 24 hrs by propidium iodide staining-based flow cytometric analysis relative to control; assay type: functional
MCF7 [17] = test: Cell cycle arrest in human MCF7 cells as assessed as accumulation at G1 phase at 1 uM after 48 hrs by propidium iodide staining-based flow cytometric analysis relative to control; assay type: functional
WI-38 [18] = test: Cell cycle arrest in human WI38 cells as assessed as accumulation at G2/M phase at 0.1 uM after 24 hrs by propidium iodide staining-based flow cytometric analysis relative to control; conditions: wi-38, 24 h
MCF7 [19] = test: Cell cycle arrest in human MCF7 cells as assessed as accumulation at sub-G1 phase at 0.1 uM after 24 hrs by propidium iodide staining-based flow cytometric analysis relative to control; assay type: functional
SW-620 [20] = test: Cell cycle arrest in human SW620 cells as assessed as accumulation at G1 phase at 0.1 uM after 48 hrs by propidium iodide staining-based flow cytometric analysis relative to control; assay type: functional
SW-620 [21] = test: Antiproliferative activity against human SW620 cells after 72 hrs by MTT assay; assay type: functional, cell-based
K562 [22] = test: Cell cycle arrest in human K562 cells as assessed as accumulation at sub-G1 phase at 0.5 uM after 24 hrs by propidium iodide staining-based flow cytometric analysis relative to control; assay type: functional
SW-620 [23] = test: Cell cycle arrest in human SW620 cells as assessed as accumulation at G1 phase at 1 uM after 24 hrs by propidium iodide staining-based flow cytometric analysis relative to control; assay type: functional
K562 [24] = test: Antiproliferative activity against apoptosis-resistant, Philadelphia chromosome-positive human K562 cells after 72 hrs by PrestoBlue colorimetric assay; assay type: functional, cell-based; conditions: K562, 72 h
WI-38 [25] = test: Cell cycle arrest in human WI38 cells as assessed as accumulation at G1 phase at 0.1 uM after 48 hrs by propidium iodide staining-based flow cytometric analysis relative to control; conditions: wi-38, 48 h
K562 [26] = test: Cell cycle arrest in human K562 cells as assessed as accumulation at sub-G1 phase at 0.1 uM after 48 hrs by propidium iodide staining-based flow cytometric analysis relative to control; assay type: functional
WI-38 [27] = test: Cell cycle arrest in human WI38 cells as assessed as accumulation at G1 phase at 1 uM after 48 hrs by propidium iodide staining-based flow cytometric analysis relative to control; conditions: wi-38, 48 h
K562 [28] = test: Cell cycle arrest in human K562 cells as assessed as accumulation at sub-G1 phase at 1 uM after 24 hrs by propidium iodide staining-based flow cytometric analysis relative to control; assay type: functional
SW-620 [29] = test: Cell cycle arrest in human SW620 cells as assessed as accumulation at S phase at 0.1 uM after 48 hrs by propidium iodide staining-based flow cytometric analysis relative to control; assay type: functional
K562 [30] = test: Cell cycle arrest in human K562 cells as assessed as accumulation at G2/M phase at 1 uM after 48 hrs by propidium iodide staining-based flow cytometric analysis relative to control; assay type: functional
SW-620 [31] = test: Cell cycle arrest in human SW620 cells as assessed as accumulation at S phase at 1 uM after 24 hrs by propidium iodide staining-based flow cytometric analysis relative to control; assay type: functional
WI-38 [32] = test: Antiproliferative activity against human WI38 cells after 72 hrs by MTT assay; assay type: cell-based
HepG2 = test: Antiproliferative activity against human HepG2 cells after 72 hrs by MTT assay; assay type: functional, cell-based
HeLa = test: Antiproliferative activity against human HeLa cells after 72 hrs by MTT assay; assay type: functional, cell-based
MCF7 [33] = test: Cell cycle arrest in human MCF7 cells as assessed as accumulation at sub-G1 phase at 1 uM after 48 hrs by propidium iodide staining-based flow cytometric analysis relative to control; assay type: functional
MCF7 [34] = test: Cell cycle arrest in human MCF7 cells as assessed as accumulation at G2/M phase at 1 uM after 48 hrs by propidium iodide staining-based flow cytometric analysis relative to control; assay type: functional
MCF7 [35] = test: Cell cycle arrest in human MCF7 cells as assessed as accumulation at sub-G1 phase at 1 uM after 24 hrs by propidium iodide staining-based flow cytometric analysis relative to control; assay type: functional

With `COCn1c(CC(COCc2ccccc2)COCc2ccccc2)c(C)c(=O)n(COC)c1=O` the Activity (K562 [1]) was 18.2%, the Activity (WI-38 [2]) was 5.7% and the Activity (K562 [3]) was 48.4%. The Activity (WI-38 [4]) was 47.9%, the Activity (WI-38 [5]) was 5.1% and the Activity (SW-620 [6]) was 20.1%. For the same compound, the Activity (WI-38 [7]) was 6.8%, the Activity (K562 [8]) was 4.2% and the Activity (K562 [9]) was 26.6%. The Activity (K562 [10]) was 85.8%, the Activity (MCF7 [11]) was 14.8% and the Activity (SW-620 [12]) was 6.7%. For the same compound, the Activity (MCF7 [13]) was “Active”, the Activity (WI-38 [14]) was 3.4% and the Activity (MCR) was “Dose-dependent effect”. The Activity (SW-620 [15]) was 15.5%, the Activity (K562 [16]) was 18.4% and the Activity (MCF7 [17]) was 11.5%. The Activity (WI-38 [18]) was 6.9%, the Activity (MCF7 [19]) was 55.5% and the Activity (SW-620 [20]) was 49.7%. The Activity (SW-620 [21]) was “Dose-dependent effect”, the IC50 (SW-620 [21]; SW-620, 72 h) was 500 nM and the Activity (K562 [22]) was 3.3%. For the same compound, the Activity (SW-620 [23]) was 55.9%, the IC50 (K562 [24]) was 600 nM and the Activity (WI-38 [25]) was 48.5%. It also gave an Activity (K562 [26]) of 3%, an Activity (WI-38 [27]) of 45.5% and an Activity (K562 [28]) of 3.1%. For the same compound, the Activity (SW-620 [29]) was 25.6%, the Activity (K562 [30]) was 17.4% and the Activity (SW-620 [31]) was 16.1%. For the same compound, the IC50 (WI-38 [32]; Homo sapiens, WI-38, 72 h) was 300 nM, the Activity (WI-38 [32]; human, wi-38, 72 h) was “Dose-dependent effect” and the Activity (HepG2) was “Dose-dependent effect”. The Activity (HeLa) was “Dose-dependent effect”, the IC50 (HeLa) was 300 nM and the Activity (MCF7 [33]) was 78.9%. For the same compound, the Activity (MCF7 [34]) was 3.8% and the Activity (MCF7 [35]) was 67.1%.
